Assay results taken from patent publication US20230000869A1, “NOVEL ALK2 INHIBITORS AND METHODS FOR INHIBITING BMP SIGNALING” (The Brigham and Women's Hospital, Inc., priority 2017, published 2023).
Where a name gives a salt, the structure may show the parent alone.

What was measured:
[1] = molecular target: T1, ALK2 (Mus musculus, UniProt P37172); assay: Luciferase reporter gene assay for ALK2 activity (C2C12 BRE-Luc SMAD1/5/8 reporter, BMP6 agonist); assay type: cell-based; settings: BMP6 50 ng/mL
T1 construct: endogenous in cells; host or cells: C2C12-BRE (BRE-Luc reporter line, G418 selection)
T1 sequence (P37172 21-509): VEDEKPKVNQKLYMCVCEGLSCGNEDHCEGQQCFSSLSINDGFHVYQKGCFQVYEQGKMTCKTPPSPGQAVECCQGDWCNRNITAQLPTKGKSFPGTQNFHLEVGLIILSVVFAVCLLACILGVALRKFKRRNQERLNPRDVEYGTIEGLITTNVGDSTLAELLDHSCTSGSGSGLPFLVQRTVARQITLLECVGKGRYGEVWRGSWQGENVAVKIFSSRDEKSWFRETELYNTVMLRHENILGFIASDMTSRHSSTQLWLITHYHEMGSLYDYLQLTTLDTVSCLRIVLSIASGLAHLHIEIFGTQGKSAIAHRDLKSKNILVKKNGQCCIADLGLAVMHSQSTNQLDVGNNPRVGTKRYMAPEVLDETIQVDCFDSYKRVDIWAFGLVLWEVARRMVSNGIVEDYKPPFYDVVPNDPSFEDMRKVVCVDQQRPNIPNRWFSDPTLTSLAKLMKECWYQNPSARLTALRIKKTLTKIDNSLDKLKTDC
Description: (§1) All cell lines were cultured in DMEM, supplemented with […] and 1% Pen/Strep. All media reagents were obtained from Gibco. BMP6, BMP9, and TGFβ were obtained from R&D Systems. C2C12-BRE and HEK293T-SBE were kept in selection with 400 ug/mL G418 from Invivogen.
(§2) In this reporter gene cell based ALK2 and TGFβ assay, the C2C12 cell line was employed for the measurement of ALK2 activity, using a BRE-Luc SMAD1/5/8 reporter and BMP6 as the agonist. The HEK293T cell line was employed to measure TGFβ activity, using a SBE-Luc SMAD2/3 reporter and TGFβ as the agonist. Luciferase reporter assays were read using Promega Steady-Glo Luciferase Assay System.
(§3) Cells were plated in 96 well white clear bottom assay plates at 10 k cells/well for C2C12-BRE, 15 k cells/well for HEK293-SBE in DMEM containing 2% FBS 1% P/S. Cells were given a minimum of 4 hours in incubator at 37° C./5% CO2 to adhere prior to further treatment. Compounds were diluted in DMSO to a 10-point dilution curve and added to the plate to reach the following final concentrations: 10000, 3000, 1000, 300, 100, and 30 nM in the HEK293-SBE assay and 1000, 300, 100, 30, 10, 3, 1, 0.3 nM in the C2C12-BRE assay. Negative and positive control wells received 2 μL DMSO as vehicle treatment. Plates were returned to incubator for 45 minutes and then BMP6 and TGFB were added to a final concentration of 50 ng/mL and 5 ng/mL, respectively. Plates were returned to the incubator and left overnight. After a minimum of 18 hours post BMP6/TGFβ addition, the plates were read using Promega Steady-Glo Luciferase Assay System. A 1:1 mixture of prepared steady-glo and phenol free DMEM was prepared, and 50 μL/well was added to the assay plates whose media had been flicked off. Plates were given 10 minutes post steady-glo addition before luminescence was read on a Spectramax M5e microplate reader. Negative control wells were averaged and subtracted from all other wells on the plate. Inhibition was calculated as the percent of signal loss compared to the averaged positive control wells.

[2] = tested on: TGFβ; assay: Luciferase reporter gene assay for TGFβ activity (HEK293T SBE-Luc SMAD2/3 reporter, TGFβ agonist); assay type: cell-based; settings: TGFβ 5 ng/mL
Description: as §1, §2, §3

Compound	IC50 [1] [nM]	IC50 ([2]; Homo sapiens, HEK-293T) [nM]	IC50 [2] [nM]
Cc1ccc2nccc(-c3cnn4cc(N5CCC(N6CCN(C)CC6)CC5)cnc34)c2c1 [Compound 185]	22	514	
COc1cc2c(-c3cnn4cc(N5CCC(N)CC5)cnc34)ccnc2cc1F [Compound 186]	57	370	
Cc1cc(-c2cnn3cc(N4CCC(N)CC4)cnc23)c2ccccc2n1 [Compound 187]	37	32	
COc1cc2c(-c3cnn4cc(N5CCC(N(C)C)CC5)cnc34)ccnc2cc1F [Compound 188]	50	126	
Cc1cc(-c2cnn3cc(N4CCC(N(C)C)CC4)cnc23)c2ccccc2n1 [Compound 189]	137	92	
COc1cc2c(-c3cnn4cc(N5CCC(N6CCC(N(C)C)C6)CC5)cnc34)ccnc2cc1F (centres unmarked) [Compound 190]	31	128	
COc1cc2c(-c3cnn4cc(N5CCOCC5)cnc34)ccnc2cc1F [Compound 192]	89	184	
COc1cc2c(-c3cnn4cc(N5CC(N6CCOCC6)C5)cnc34)ccnc2cc1F [Compound 193]	118	449	
Cc1cc(-c2cnn3cc(N4CC(N5CCOCC5)C4)cnc23)c2ccccc2n1 [Compound 194]	221	138	
COc1cc2c(-c3cnn4cc(N5CCN(C)CC5)cnc34)ccnc2cc1F [Compound 195]	298	286	
Cc1cc(-c2cnn3cc(N4CCN(C)CC4)cnc23)c2ccccc2n1 [Compound 196]	935	126	
Cc1cc(-c2cnn3cc(N4CCOCC4)cnc23)c2ccccc2n1 [Compound 197]	395	623	
Cc1cc(-c2cnn3cc(N4CCN(CC(C)(C)O)CC4)cnc23)c2ccccc2n1 [Compound 198]	300	283	
COc1cc2c(-c3cnn4cc(N5CCN(C6CN(C)C6)CC5)cnc34)ccnc2cc1F [Compound 199]	23	498	
COc1cc2c(-c3cnn4cc(N5CCN(CC(C)(C)O)CC5)cnc34)ccnc2cc1F [Compound 200]	94	324	
COc1cc2c(-c3cnn4cc(N5CC(CC#N)(N6CCN(C)CC6)C5)cnc34)ccnc2cc1F [Compound 201]	13	327	
COc1cc2c(-c3cnn4cc(N5CCN(c6ccncc6)CC5)cnc34)ccnc2cc1F [Compound 202]	507	359	
COc1cc2c(-c3cnn4cc(N5CCN(c6ccnc(C)n6)CC5)cnc34)ccnc2cc1F [Compound 203]	26	> 3000	
COc1cc2c(-c3cnn4cc(N5CCN(c6nnc(C)s6)CC5)cnc34)ccnc2cc1F [Compound 204]	11	> 3000	
CN1CCN(C2CCN(c3cnc4c(-c5ccnc6cccnc56)cnn4c3)CC2)CC1 [Compound 205]	593	> 3000	
COc1cc2c(-c3cnn4cc(N5CCC(N6CCN(C)CC(F)(F)C6)CC5)cnc34)ccnc2cc1F [Compound 206]	356	817	
Cc1cc(-c2cnn3cc(N4CCC(N5CCN(C)CC(F)(F)C5)CC4)cnc23)c2ccccc2n1 [Compound 207]	331	215	
COc1ccc2nccc(-c3cnn4cc(N5CCC(N6CCCN(C)CC6)CC5)cnc34)c2c1 [Compound 208]	104	685	
COc1cc2c(-c3cnn4cc(N5CC(c6ccncc6)C5)cnc34)ccnc2cc1F [Compound 209]	15	62	
Cc1cc(-c2cnn3cc(N4CC(c5ccncc5)C4)cnc23)c2ccccc2n1 [Compound 210]	17	91	

Compound	IC50 [1] [nM]	IC50 ([2]; Homo sapiens, HEK-293T) [nM]	IC50 [2] [nM]
COc1cc2c(-c3cnn4cc(N5CCC(C(C)(C)N)CC5)cnc34)ccnc2cc1F [Compound 211]	51	416	
CS(=O)(=O)c1cccc(-c2cnn3cc(N4CCNCC4)cnc23)c1 [Compound 212]	38	760	
CS(=O)(=O)c1cccc(-c2cnn3cc(N4CCN(C5CCNCC5)CC4)cnc23)c1 [Compound 213, 3-(3-(methylsulfonyl)phenyl)-6-(4-(piperidin-4-yl)piperazin-1-yl)pyrazolo[1,5-a]pyrimidine trihydrochloride]	< 1	< 1	
COc1cc2c(-c3c(N)nn4cc(N5CCC(N6CCN(C)CC6)CC5)cnc34)ccnc2cc1F [Compound 214, 3-(7-fluoro-6-methoxy-4-quinolyl)-6-[4-(4-methylpiperazin-1-yl)-1-piperidyl]pyrazolo[1,5-a]pyrimidin-2-amine]	> 1000	> 1000	
COc1cc2c(-c3cnn4cc(N5CCC(N6C[C@@H]7C[C@H]6CN7C)CC5)cnc34)ccnc2cc1F [Compound 215]	34	142	
COc1cc2c(-c3cnn4cc(N5CCC6(CC5)CN(C)C6)cnc34)ccnc2cc1F [Compound 216]	24		44
COc1cc2c(-c3cnn4cc(N5CCC6(CCN(C)CC6)CC5)cnc34)ccnc2cc1F [Compound 217]	33	116	
COc1cc2c(-c3cnn4cc(N5C[C@H]6CN(C)C[C@H]6C5)cnc34)ccnc2cc1F [Compound 218]	26	141	
CN1CCN(C2CCN(c3cnc4c(-c5ccnc(N6CCOCC6)c5)cnn4c3)CC2)CC1 [Compound 219]	381	> 3000	
COc1cc2c(-c3cnn4cc(N5CCC(N6CCN(C)CC6)CC5)cnc34)cc(=O)[nH]c2cc1F [Compound 220]	> 1000	> 1000	
COc1ccc2nccc(-c3cnn4cc(N5CC(N6CCN(C)CC6)C5)cnc34)c2c1 [Compound 221]	6	277	
Cc1cc(-c2cnn3cc(N4CC(N5CCN(C)CC5)C4)cnc23)c2ccccc2n1 [Compound 222]	14	70	
Cc1cc(-c2cnn3cc(N4CCC(N5CCN(C)CC5)CC4)cc(OC4CCOCC4)c23)c2ccccc2n1 [Compound 223]	272	> 3000	
COc1cc2c(-c3cnn4cc(N5CCC(N6CCN(C)CC6)CC5)cc(OC5CCOCC5)c34)ccnc2cc1F [Compound 224]	> 1000	> 3000	
CN1CCN(C2CCN(c3cc(OC4CCOCC4)c4c(-c5cn[nH]c5)cnn4c3)CC2)CC1 [Compound 225]	> 1000	> 3000	
Cc1cc2nccc(-c3cnn4cc(N5CCC(N6CCN(C)CC6)CC5)cnc34)c2s1 [Compound 226]	18	> 1000	
Cc1cc2nccc(-c3cnn4cc(N5CCC(N6CCN(C)CC6)CC5)cnc34)c2[nH]1 [Compound 227]	903	826	
CN1CCN(C2CCN(c3cnc4c(-c5ccnc6cc[nH]c56)cnn4c3)CC2)CC1 [Compound 228]	476	605	
CN1CCN(C2CCN(c3cnc4c(-c5cc(N)nc6ccccc56)cnn4c3)CC2)CC1 [Compound 229]	52	9	
COc1cc2c(-c3cnn4cc(N5CCC(N6CCN(C)CC6)CC5)ccc34)ccnc2cc1F [Compound 230]	46	505	
Cc1cc2nccc(-c3cnn4cc(N5CCC(N6CCN(C)CC6)CC5)cnc34)c2cc1C [Compound 233]	70	589	
CN1CCN(C2CCN(c3cnc4c(-c5ccnc6ccc(C#N)cc56)cnn4c3)CC2)CC1 [Compound 234]	> 1000	> 1000	
CN1CCN(C2CCN(c3cnc4c(-c5ccnc6ccc(C(F)(F)F)cc56)cnn4c3)CC2)CC1 [Compound 235]	25	> 1000	
CN1CCN(C2CCN(c3cnc4c(-c5cc(C(F)(F)F)nc6ccccc56)cnn4c3)CC2)CC1 [Compound 236]	975	267	
